# Results taken from US20150174194A1, “METHODS FOR TREATING LIVER TRANSPLANT RECIPIENTS” (AbbVie Inc., priority 2013, published 2015).
# Assays:
# [1] = Immunosuppressant blood concentrations in liver transplant recipients co-dosed with 3D; format: in vivo, human
# Description: Patients (n=34) on stable TAC or CSA therapy, at least 12 months post-LT, fibrosis stage <F2, received 3D +RBV for 24 weeks. When co-dosed with 3D, it was recommended that the prestudy total CSA daily dose be reduced to one-fifth and given QD. For TAC, a dose of 0.5 mg/7 days or 0.2 mg/3 days was recommended. Subsequent dose and dosing frequency modifications in TAC were made based on the individual TAC levels. Observed CSA trough concentrations (Ctrough) were summarized for CSA recipients (n=5) while TAC data (n=29) were interrogated further to profile on-study TAC Ctroughs. A nonlinear mixed effects model was used to characterize TAC concentration-time profiles using NONMEM software. A one compartment pharmacokinetic (PK) model with first order oral absorption and between subject variability on apparent clearance was used to describe the TAC data. The model estimated TAC PK parameters were used to predict TAC concentration-time profiles in order to evaluate TAC dosing strategies when co-dosed with 3D.
# [2] = human, in vivo
# Excerpt: The Example summarizes the management of concentrations of the immunosuppressants, tacrolimus (TAC) and cyclosporine (CSA) during the treatment.
# [3] = co-dosed with 3D, TAC dose 0.2-1 mg, CSA dose 25-75 mg, liver transplant recipients
smiles,measurement,setting,value
"C=CC[C@@H]1/C=C(\C)C[C@H](C)C[C@H](OC)[C@H]2O[C@@](O)(C(=O)C(=O)N3CCCC[C@H]3C(=O)O[C@H](/C(C)=C/[C@@H]3CC[C@@H](O)[C@H](OC)C3)[C@H](C)[C@@H](O)CC1=O)[C@H](C)C[C@@H]2OC [TAC, tacrolimus]",Concentrations with recommended dose modifications,[1]; LT recipients with GT1 HCV infection receiving 3D,within the therapeutic range
same,"Blood concentration, interquartile range (IQR)",[1]; [3],3.3 to 6.6 ng/mL
same,"Blood concentration, median",[1]; [3],4.6 ng/mL
same,Increase in concentration 24 hours after co-dosing with 3D,[2],17 fold
